Reference: patent US20090324700A1, “METHODS AND COMPOSITIONS FOR THE INHIBITION OF CATHEPSINS” (priority 2003, published 2009)
Residues, ends and D or L forms follow the SMILES beside them. *: point of attachment. Cbz = O=C(OCc1ccccc1)*; CH2F = FC*

Experiments:
cathepsin B = target: T1, cathepsin B (Mus musculus, UniProt P10605); assay: Cathepsin B activity in crude cytoplasmic extracts, RelA^−/− MEFs; format: cell-based
T1 construct: endogenous in cells; host or cells: RelA-/- or RelA+/+ MEFs (retrovirally transduced with GFP, RelA, Spi2A or antisense Spi2A)
Method: Survival Assays. Although RelA^−/− MEFs are markedly more sensitive to TNF-α compared to RelA^+/+ MEFs, low levels of CHX (0.1 μg/ml) were used in the survival assays. This was to suppress any protective activity of constitutively active non-RelA NF-κB molecules that are present in RelA^−/− MEFs (FIG. 4). Thus, RelA^−/− MEFs were treated with CHX and TNF-α (R&D) and the number of live GFP-positive adherent cells was counted by flow cytometry after 16 h, if not indicated otherwise. Live cells were defined as those that excluded propidium iodide (PI-negative) and had the appropriate size, as defined by forward and side scatter characteristics (Coligan et al., 1995). For RelA^+/+ MEFs, TNF-α-cytotoxicity was determined after 16 h with CHX (10 μg/ml), if not indicated otherwise. Cathepsin B activity was inhibited by a 1 h pre-treatment of MEFs with CA-074 Me (30 μM) (Peptide Institute). […] RelA^−/− MEFs were treated with (10-50 μM) sphingosine (Calbiochem) and the number of live GFP-positive adherent cells was counted by flow cytometry after 2 h.
Death effector assays. Death effector pathways were induced in […] MEFs by treatment TNF-α (0.2 ng/ml) and CHX (0.1 μg/ml). […] Protein concentration was determined by Lowry assay (DC-protein assay kit, Biorad). […]
Colorimetric assays for capases were performed in reaction buffer (50 mM HEPES, pH 7.4, 100 mM NaCl, 10 mM DTT, 1 mM EDTA, 10% glycerol, 0.1% CHAPS) at 37° C. on crude cytoplasmic extracts using p-Nitoaniline (pNA)-labeled substrates (Calbiochem) specific for caspases 3 and 7 (Ac-DEVD-pNA), caspase 8 (Ac-IETD-pNA), caspase 9 (Ac-LEHD-pNA), each at 0.2 mM. Specific activity was determined by subtracting the apparent activity detected after 1 h pre-incubation of extract with the pan-caspase inhibitor Z-VAD.fmk at 50 μM (ICN Biomedicals Inc), then normalizing for the amount of protein. […] Specific activity was determined by subtracting the apparent activity detected after 30 min pre-incubation of extract at 37° C. with the cathespin B inhibitor CA-074 Me at 30 μM (Peptide Institute) then normalizing for the amount of protein.

RelA^−/− MEFs = assay: Survival assay, TNF-α and CHX, RelA^−/− MEFs; format: cell-based, mouse; details: CHX 0.1 μg/ml
caspase activity = assay: Caspase activity enzyme assay, NIH3T3 cells; format: cell-based; details: Z-VAD.fmk 50 μM, 1 h pre-treatment; verified by enzyme assay
Method: (§1) TNF-α death assays. NIH3T3 cells were transduced with MIGR1 retrovirus (Zhang and Ren, 1998) encoding either GFP alone, or Spi2A in the forward (sense) or reverse (antisense) orientation and stable clones generated, as described previously (Liu et al., 2003). Cells were treated with TNF-α (R&D) and after 16 h the number of live GFP-positive adherent cells were counted by flow cytometry (Liu et al., 2003). Live cells were defined as those that excluded propidium iodide (PI-negative) and had the appropriate size, as defined by forward and side light scatter characteristics. Caspase activity was inhibited by pre-treatment of cells or extracts for 1 h with Z-VAD.fmk (ICN Biomedicals Inc; 50 μM). […] In anti-sense experiments the level of Spi2A mRNA was quantitated by real-time PCR using primers and probes specific for Spi2A (Inglis et al., 1991) and cyclofilin A control mRNA (Medhurst et al., 2000), 4 h after treatment with Z-VAD.fmk ([…]) and TNF-α (10 ng/ml), as described previously (Liu et al., 2003).

NIH3T3 cells = assay: TNF-α death assays, NIH3T3 cells; format: cell-based; details: Z-VAD.fmk 50 μM, TNF-α 10 ng/ml, 16 h; FIG. 9A
Method: as §1

T1 sequence (P10605 80-333): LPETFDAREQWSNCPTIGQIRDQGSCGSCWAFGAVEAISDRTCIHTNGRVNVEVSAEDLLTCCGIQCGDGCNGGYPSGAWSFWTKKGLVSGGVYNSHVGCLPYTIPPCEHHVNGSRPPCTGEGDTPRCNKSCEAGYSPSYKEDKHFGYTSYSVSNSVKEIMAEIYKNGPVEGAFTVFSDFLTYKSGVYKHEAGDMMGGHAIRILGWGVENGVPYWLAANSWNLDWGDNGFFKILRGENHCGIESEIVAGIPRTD

Compound: CCCNC(=O)[C@H]1O[C@@H]1C(=O)N[C@H](C(=O)N1CCC[C@H]1C(=O)OC)[C@@H](C)CC [CA-074 Me, reference compound]
- Inhibition of cathepsin B activity in MEFs (cathepsin B; CA-074 Me 30 μM, 1 h pre-treatment, verified by enzyme assay): complete inhibition
- Protection from TNF-α-induced death (percentage survival) (RelA^−/− MEFs; CA-074 Me 30 μM, TNF-α 0.5 ng/ml, FIG. 1A): protected

Compound: COC(=O)C[C@H](NC(=O)[C@H](C)NC(=O)[C@@H](NC(=O)OCc1ccccc1)C(C)C)C(=O)CF [Z-VAD.fmk, reference compound] (Cbz-Val-Ala-Asp(OMe)-CH2F)
- Inhibition of caspase activity (caspase activity): complete inhibition
- Sensitization to PCD by TNF-α (percentage survival) (NIH3T3 cells): sensitized

Compound: RelA: human RelA (p65) cDNA expressed from MIGR1 retrovirus in RelA^−/− MEFs [reference compound]
- Cytosolic cathepsin B activity after TNF-α, retrovirally transduced cells (cathepsin B; TNF-α 0.2 ng/ml, CHX 0.1 μg/ml, FIG. 1C, 7A): extinguished
- Percentage survival after TNF-α and CHX, retrovirally transduced cells vs GFP (RelA^−/− MEFs; 16 h, FIG. 1B, 2B): complete protection
